Test results as given in US20070173462A1, “Treatment of diseases associated with the use of antibiotics” (Optimer Pharmaceuticals, Inc., priority 2004, published 2007).

Legend:
[1] = tested on: C. difficile; test: MIC via agar dilution, 110 genetically distinct clinical isolates of C. difficile; assay type: cell-based
[2] = tested on: C. difficile; test: microbe, parasite or virus in culture; assay type: cell-based; details: clinical isolates, n=23
[3] = tested on: toxigenic C. difficile; test: Hamster model of clindamycin-induced Clostridium difficile associated diarrhea/colitis; assay type: in vivo, Syrian hamsters
Procedure: Animals were treated with two oral doses of clindamycin at 100 mg/kg. Three days after the second dose of clindamycin, they were inoculated with toxigenic C. difficile spores. […] Animals were observed daily for the presence or absence of diarrhea. Necropsies were performed on some animals that died during the experiment, and cecal contents were assayed for C. difficile toxin A. Hamsters were monitored for 20 days, and the cumulative mortality during this period was recorded (FIG. 1).

[4] = tested on: Enterobacter sp.; test: microbe, parasite or virus in culture; assay type: cell-based; details: clinical gastrointestinal isolates, n=20
[5] = tested on: Enterobacteiaceae; test: MIC, clinical isolates (Table 3); assay type: cell-based; details: n=28
Source text: (§1) Compound I was additionally tested against anaerobic clinical isolates and against aerobic bacteria. […] The compound was also active against clinical strains of Staphylococcus sp. and Enterococcus sp.

[6] = tested on: Prevotella sp.; test: MIC, clinical isolates (Table 3); assay type: cell-based; details: n=35
Source text: as §1

[7] = tested on: Lactobacillus sp.; test: MIC, clinical isolates (Table 3); assay type: cell-based; details: n=8, in µg/mL
Source text: as §1

[8] = tested on: Staphylococcus sp.; test: MIC, clinical isolates (Table 3); assay type: cell-based
Source text: as §1

[9] = tested on: Eubacterium sp.; test: MIC, clinical isolates (Table 3); assay type: cell-based; details: n=26
Source text: as §1

[10] = tested on: C. sordellii; test: microbe, parasite or virus in culture; assay type: cell-based; details: clinical isolates, n=5

CCc1c(Cl)c(O)c(Cl)c(O)c1C(=O)O[C@H]1[C@H](O)[C@H](OC)[C@H](OC/C2=C\C=C\C[C@H](O)/C(C)=C/[C@H](CC)C(O[C@@H]3OC(C)(C)[C@@H](OC(=O)C(C)C)[C@H](O)[C@@H]3O)/C(C)=C/C(C)=C/C[C@@H](C(C)O)OC2=O)O[C@@H]1C (some centres unmarked) [Compound I]
1-8: Range (MIC) ([8]; clinical isolates, n=10, in µg/mL)
0.25 µg/mL: MIC90 ([2]; Clostridioides difficile)
0.062 to 2 µg/mL: Range (MIC) [2]
2 µg/mL: MIC50 ([8]; Staphylococcus, clinical isolates, n=10)
>256 µg/mL: Range (MIC) [4]
8-32: Range (MIC) [7]
0.125 µg/mL: MIC ([1]; isolate ORG ID 64 5940) | MIC ([1]; isolate ORG ID 67 6367) | MIC ([1]; isolate ORG ID 70 6376) | MIC ([1]; isolate ORG ID 71 6379) | MIC ([1]; isolate ORG ID 72 6380) | MIC ([1]; isolate ORG ID 75 6388) | MIC ([1]; isolate ORG ID 76 6389) | MIC ([1]; isolate ORG ID 80 6327) | MIC ([1]; isolate ORG ID 81 6328) | MIC ([1]; isolate ORG ID 84 6331) | MIC ([1]; isolate ORG ID 87 6334) | MIC ([1]; isolate ORG ID 88 6335) | MIC ([1]; isolate ORG ID 90 6338) | MIC ([1]; isolate ORG ID 91 6339) | MIC ([1]; isolate ORG ID 93 6341) | MIC ([1]; isolate ORG ID 95 6347) | MIC ([1]; isolate ORG ID 98 6350) | MIC ([1]; isolate ORG ID 100 6353) | MIC ([1]; isolate ORG ID A1 1535) | MIC ([1]; isolate ORG ID AF1 1808) | MIC ([1]; isolate ORG ID AG1 3044) | MIC ([1]; isolate ORG ID AH1 3430) | MIC ([1]; isolate ORG ID AN1 464) | MIC ([1]; isolate ORG ID AO1 287) | MIC ([1]; isolate ORG ID AS1 4099) | MIC ([1]; isolate ORG ID AT1 1216) | MIC ([1]; isolate ORG ID AW1 4501) | MIC ([1]; isolate ORG ID BE1 4307) | MIC ([1]; isolate ORG ID BI1 1675) | MIC ([1]; isolate ORG ID BK1 4291) | MIC ([1]; isolate ORG ID BL1 716) | MIC ([1]; isolate ORG ID BN1 1322) | MIC ([1]; isolate ORG ID BV1 1183) | MIC ([1]; isolate ORG ID BW1 3130) | MIC ([1]; isolate ORG ID BX1 4271) | MIC ([1]; isolate ORG ID CF1 5922) | MIC ([1]; isolate ORG ID CG1 1566) | MIC ([1]; isolate ORG ID CJ1 893) | MIC ([1]; isolate ORG ID CP1 5491) | MIC ([1]; isolate ORG ID G1 1077) | MIC ([1]; isolate ORG ID I1 1389) | MIC ([1]; isolate ORG ID K1 4305) | MIC ([1]; isolate ORG ID K14 5780) | MIC ([1]; isolate ORG ID L1 1423) | MIC ([1]; isolate ORG ID N1 471) | MIC ([1]; isolate ORG ID R1 397) | MIC ([1]; isolate ORG ID V1 1521) | MIC ([1]; isolate ORG ID W1 3931) | MIC ([1]; isolate ORG ID X1 1890)
active: activity (in words) ([8]; clinical strains)
protected the animals from infection: protection from infection (cumulative mortality over 20 days) ([3]; oral treatment for 7 days, untreated infection uniformly fatal between days two and six)
> 64 µg/mL: MIC50 [5] | Range (MIC) [5]
0.12 µg/mL: MIC50 ([2]; Clostridioides difficile)
< 0.3 mg/kg: ED50 ([3]; Clostridioides difficile, oral, 7 days, started 8 hours after infection, hamsters monitored 20 days)
32 µg/mL: MIC50 [9]
0.062 µg/mL: MIC50 ([10]; Paraclostridium sordellii) | MIC90 ([10]; Paraclostridium sordellii) | Range (MIC) [10]
> 256 µg/mL: MIC50 ([4]; Enterobacter) | MIC90 ([4]; Enterobacter)
≥ 128 µg/mL: MIC50 [6]
